Experimental data as given in patent publication US5563121A, “Peptide linkage unit” (priority 1994, dated 1996).
*1 amine or outer side, *2 acyl side, *3 side chain or, on linkers, in order; H or OH if unused. Where a SMILES comes first, the peptide text is derived from it. [ ]: non-standard residue; d: D form. X1 = O=C([C@@H]1CCCN1CP(=O)(O)C(Cc1ccccc1)N[*:1])[*:2]

Target: T1, Synthetic HIV-1 proteinase (Human immunodeficiency virus type 1 group M subtype B, UniProt P03369)
T1 construct: Synthetic HIV-1 proteinase; made in house; host or cells: chemical synthesis (no expression host); gift of Dr. Stephen Kent, The Scripps Research Institute
Assay: HPLC assay of HIV-1 PR inhibition
Assay type: biochemical
Details: HIV substrate IV, pH 6.2, 25° C.
Protocol: Typical reactions were carried out at room temperature (25° C.) in 150 μl total volumes of 100 mM MES buffer, pH 6.2, containing 1 mM ethylenediaminetetra-acetic acid (EDTA) and 2 mM dithiothreitol (DTT) plus 0.1 percent (v/v) Triton X-100.
Synthetic HIV-1 proteinase [0.5 μg, obtained from Dr. Stephen Kent of The Scripps Research Institute; see Cell, 54:363-368 (July 29, 1988)] was first incubated in buffer with (or without) various concentrations of "inhibitor(s)" for 30 minutes at 25° C. The proteinase reaction was then initiated by the addition of HIV substrate IV (Bachem Bioscience Inc.) at fixed concentrations. HIV Substrate IV has the sequence
Lys-Ala-Arg-Val-Nle-p-NO2 Phe-Glu-Ala-Nle-NH2 (SEQ ID NO: 32).
At three appropriate times (normally 15, 30 and 45 minutes) the hydrolysis was stopped by adding a 40 μl aliquot from the reaction to 40 μl of a prepared quench solution. The quench solution was 1:4 acetonitrile:water (3 percent trifluoroacetic acid; TFA) and contained 150 μM m-toluic acid which served as an HPLC standard. […] Reaction progress was monitored by following the increasing absorbance (peak height) of the substrate IV cleavage product detected at […].

CC[C@H](C)[C@H](NC(=O)[C@@H]1CCCN1CP(=O)(O)C(Cc1ccccc1)NC(=O)[C@H](CC(N)=O)NC(=O)[C@H](CC(C)C)NC(=O)[C@H](CO)NC(C)=O)C(=O)N[C@H](C(=O)OC)C(C)C (stereo partly drawn) [Compound 6, CH3 C(O)-Ser-Leu-Asn-Phe.psi.[PO2^- CH2 NH^+ ]Pro-Ile-Val-OCH3] (Ac-SLN[X1]IV-OMe)
Ki (one stereoisomer of Compound 6): ~600 µM | Ki (the other (more active) isomer of Compound 6): ~0.01 µM
